Common to all, as to assay type: cell-based, human
For series [1], the system named is mRNA transcribed from the ADAM8 gene in HL60AML cell line. As to the kind of experiment: ADAM8 gene expression inhibition by shRNA (mRNA amount). The following applies: HL60, lentiviral shRNA, 72 hours puromycin selection; non-target_shRNA defined as 1; FIG. 18. The method, then: After extraction of total RNA with RNAeasy reagent (QIAGEN), reverse transcription was performed with ReverTra Ace qPCR RT Master Mix (TOYOBO). The primer sequences used for PCR are shown below. Real-time quantitative PCRs were carried out in ABI-7000 Sequencing System with THUNDERBIRD SYBR qPCR Mix, following the manufacturer's instructions (TOYOBO). Each assay was performed in triplicate. 18S rRNA and β-actin were used as endogenous controls.
The amount of mRNA transcribed from the ADAM8 gene in the cells was measured after treatment of an HL60AML cell line with ADAM8_shRNA 1 (SEQ ID NO: 45), ADAM8_shRNA 2 (SEQ ID NO: 46) and ADAM8_shRNA_3 (SEQ ID NO: 47). The target sequences of ADAM8_shRNA_1, ADAM8_shRNA_2 and ADAM8_shRNA_3 are listed as SEQ ID NO: 49, 50 and 51, respectively. Specifically, pLKO.1-puro-CMV-tGFP (Sigma Aldrich Japan) incorporating DNA encoding shRNA was transferred into HEK293 cells together with pMISSION GAG POL (Sigma Aldrich Japan) and pMISSION VSV-G (Sigma Aldrich Japan), to obtain an shRNA-expressing lentivirus. The obtained lentivirus was used to infect HL60, 1 μg/ml puromycin was used for 72 hours of selection, and ADAM8 gene expression in the selected cells was analyzed. The expression level of the ADAM8 gene when using non-target_shRNA that targets a non-ADAM8 gene (SEQ ID NO: 48, target sequence: SEQ ID NO: 52) (indicated as “non-target” in the graph) was defined as 1.

For a further series, the system named is CD34+ADAM8- cells. As to the kind of experiment: Cell viability assay with GM6001, CD34+ADAM8- cells. The following applies: GM6001 2.5 μM; FIG. 20. The method, then:
(§1) The cell viability assay and apoptosis assay were carried out according to the method described in Ma, L. et al., Sci. Transl. Med. 6, 252ral21(2014).
(§2) CD34+ADAM8+ cells and CD34+ADAM8− cells were used for a cell viability assay in the absence of GM6001 (Merck Millipore) and in the presence of GM6001 at specific concentrations (2.5 μM, 5 μM, 20 μM). […] GM6001 was confirmed to have no effect on the cell viability of either CD34+ADAM8+ cells or CD34+ADAM8− cells, at a concentration of 2.5 μM.

Series [2] concerns CD34+ADAM8+ cells (CML-CP9- and CML-CP23-derived). As to the kind of experiment: Cell viability assay with imatinib plus GM6001. The following applies: 1.0 μM imatinib and 2.5 μM GM6001 vs 1.0 μM imatinib alone; FIG. 21, 22. As for the experimental part: as §1
The test system of another series is CD34+ADAM8+ cells. As to the kind of experiment: Cell viability assay with GM6001, CD34+ADAM8+ cells. To be noted: GM6001 2.5 μM; FIG. 20. The method, then:
as §1, §2

Series [3] concerns CD34+ADAM8+ CML cells of CML-CP patient. As to the kind of experiment: Cell viability assay of CD34+ADAM8+ and CD34+ADAM8- cell fractions with imatinib. The following applies: 48 hours exposure to imatinib; FIG. 11. The method, then:
as §1

Series [4] shares this test system. As to the kind of experiment: Apoptosis assay of CD34+ADAM8+ and CD34+ADAM8- cell fractions with imatinib. To be noted: 48 hours exposure to imatinib; FIG. 12. As for the experimental part: as §1
A further series relates to CML-pre-HPCs. As to the kind of experiment: Apoptosis assay in hematopoietic differentiation of CML-iPSCs. To be noted: 5 μM imatinib, 48 hours from medium exchange; FIG. 5.

The results in this text go back to patent publication US20180259530A1, “Method and kit for testing chronic myelogenous leukemia (CML), method for isolating TKI-resistant CML cells, and agent for reducing TKI-resistance of CML and method for screening the same” (The University of Tokyo, priority 2017, published 2018).

For “ADAM8_shRNA_3: shRNA that inhibits expression of the ADAM8 gene, SEQ ID NO: 47, target sequence SEQ ID NO: 51 (CCGGGGAAUAGUCAGGACAGGUUCCCUCGAGGGAACCUGUCCUGACUAUUCCUUUUU)”, in series [1], the “knockdown of ADAM8 gene expression (mRNA)” value (“knockdown” for short) is recorded as “confirmed to have the ability to knockdown ADAM8”.
For `CNC(=O)[C@H](Cc1c[nH]c2ccccc12)NC(=O)[C@@H](CC(=O)NO)CC(C)C` [GM6001, (2R)—N^4-Hydroxy-N^1-[(1S)-2-(1H-indol-3-ylmethyl)-2-(methylamino)-2-oxoethyl]-2-(2-methylpropyl)butanediamide], in the series on CD34+ADAM8- cells, the “effect on cell viability of CD34+ADAM8- cells” value was “no effect”. For the same compound, in series [2], the “TKI resistance (cell viability) on inhibition of ADAM8 activity” value is “TKI resistance is lowered”. The “effect on cell viability of CD34+ADAM8+ cells” value with CD34+ADAM8+ cells is given as “no effect”.
For the compound “ADAM8_shRNA_1: shRNA that inhibits expression of the ADAM8 gene, SEQ ID NO: 45, target sequence SEQ ID NO: 49 (CCGGGGACAAGCUAUAUCAGAAACUCUCGAGAGUUUCUGAUAUAGCUUGUCCUUUUU)”, the “knockdown” value in series [1] was “confirmed to have the ability to knockdown ADAM8”.
As for “ADAM8_shRNA_2: shRNA that inhibits expression of the ADAM8 gene, SEQ ID NO: 46, target sequence SEQ ID NO: 50 (CCGGGGGCCUGGAGAUUUGGAAUAGCUCGAGCUAUUCCAAAUCUCCAGGCCCUUUUU)”, the “knockdown” value in series [1] is “confirmed to have the ability to knockdown ADAM8”.
For `Cc1ccc(NC(=O)c2ccc(CN3CCN(C)CC3)cc2)cc1Nc1nccc(-c2cccnc2)n1` [imatinib], in series [3], the “imatinib resistance (cell viability) of ADAM8+ CML cells compared to ADAM8- CML cells” value is listed as “greater imatinib resistance”. In addition, in series [4], the “apoptosis induced by imatinib in ADAM8+ CML cells compared to ADAM8- CML cells” value is listed as “suppressed”. In addition, the “apoptosis induction in CML-pre-HPCs” value in the series on CML-pre-HPCs is listed as “not induced to undergo apoptosis”.
